Laboratory results from patent publication US10457642B2, “211-astatine containing radiotherapeutics for the treatment of cancer” (The Trustees of The University of Pennsylvania, priority 2015, dated 2019).
Several values for one entry are separate records, joined by “and”; a condition that tells them apart may be missing. Identical values can stand only once. Like-named read-outs stand apart in the source and are kept apart here.

What was measured:
[1] = in vivo; cited from earlier work
sigma-2 receptor = biological target: T1, sigma-2 receptor (Homo sapiens, UniProt Q5BJF2); experiment: In vitro live cellular binding studies in MDA-MB-231 breast cancer cells; settings: MDA-MB-231 cells
T1 construct: was evaluated in MDA-MB-231 breast cancer cells (ATCC-HTB-26) known to have high sigma-2 receptor density; host or cells: MDA-MB-231 (living, plated cells)
Method: MDA-MB-231 were cultured in Minimum Essential Media (MEM) with added nutrients, 10% fetal bovine serum (FBS) and 1% penicillin/streptomycin at 5% CO2 and 37° C. Twenty-four hours before assay cells were plated at 50,000 cell/well in 96-well format. Two solutions of freshly synthesized radioligand were diluted to a concentration of approximately 2,000 cpm/μL in phosphate buffered saline with calcium and magnesium (PBS w/ Ca^2+ and Mg^2+), with and without non-radioactive 100 μM of the standard to determine non-specific binding. […] Total volume of treatment in each well was 50 μL. PBS w/ Ca^2+ and Mg^2+ without substrate was added to the last row of wells and was used for protein quantification at the end of the experiment. Treatment was removed at time points over the course of 2 h (n=4/time point). At each time of treatment removal, wells were washed with PBS×3. At the end of the experiment wells were counted on an automatic gamma counter using a custom protocol with an energy window of 70-110 KeV (Wizard™ 2470, Perkin Elmer, Waltham Mass.). Protein quantification was performed using a modified Lowry method. Independent experiments were repeated in triplicate. One-phase association kinetics were modeled using Prism™ software version 6.0 (La Holla, Calif.).

[2] = Method: Tumors were grown by subcutaneously injecting 1×10^6 EMT-6 mouse breast cancer cells (ATCC #CRL-2755) into the flanks of female BALB/c mice (Taconic). Tumors were an appropriate size of approximately 200 mm^3 after 14 days of growth. On the day of experiment 10 μCi of newly synthesized ^211At—N-(6,7-dimethoxy-3,4-dihydroisoquinolin-2(1H)-yl)butyl)-2,3-dimethoxybenzamide in saline (ethanol<5%) was administered intravenously to mice under isoflurane anesthesia. Mice were sacrificed by cervical dislocation followed by immediate cardiac puncture post administration at time points of 5 min, 1, 2, 4, 8, and 24 h (n=4 mice/time point). Tissue harvested included; blood, heart, muscle, lung, kidney, pancreas, spleen, liver, skin, brain, thyroid, stomach and EMT-6 tumor. Tissues were weighed and counted on an automatic gamma counter as previously described. All animal experiments were conducted under IACUC-approved protocols compliant with University of Pennsylvania guidelines for the care and use of research animals.

T1 sequence (Q5BJF2 whole entry): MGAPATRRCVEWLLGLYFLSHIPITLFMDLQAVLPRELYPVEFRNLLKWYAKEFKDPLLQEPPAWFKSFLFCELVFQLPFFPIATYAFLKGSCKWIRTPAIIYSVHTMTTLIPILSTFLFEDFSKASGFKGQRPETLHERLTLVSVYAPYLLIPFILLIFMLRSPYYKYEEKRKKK

COc1cc2c(cc1OC)CN(CCCCNC(=O)c1cc(I)cc(OC)c1OC)CC2 [iodinated sigma-2 ligand standard, 5-iodo-N-(4-(6,7-dimethoxy-3,4-dihydroisoquinolin-2(1H)-yl)butyl)-2,3-dimethoxybenzamide]
tumor uptake [1]: 2 % ID/g

COc1cc2c(cc1OC)CN(CCCCNC(=O)c1cc([211At])cc(OC)c1OC)CC2 [^211At—N-(6,7-dimethoxy-3,4-dihydroisoquinolin-2(1H)-yl)butyl)-2,3-dimethoxybenzamide]
reduction in total binding through the addition of the standard (sigma-2 receptor; +100 μM non-radioactive standard): 80%
time of 50% maximal binding (T1/2) (sigma-2 receptor; one-phase association): 12.51 min
Decay corrected biodistribution, Blood ([2]; 5 min after i.v.): 4.06 ± 0.19 % ID/g
Decay corrected biodistribution, Blood ([2]; 1 h after i.v.): 2.12 ± 0.15 % ID/g
Decay corrected biodistribution, Blood ([2]; 2 h after i.v.): 2.43 ± 0.82 % ID/g
Decay corrected biodistribution, Blood ([2]; 4 h after i.v.): 1.64 ± 0.11 % ID/g
Decay corrected biodistribution, Blood ([2]; 8 h after i.v.): 1.82 ± 0.10 % ID/g
Decay corrected biodistribution, Blood ([2]; 24 h after i.v.): 0.44 ± 0.10 % ID/g
Decay corrected biodistribution, Brain ([2]; 5 min after i.v.): 1.95 ± 0.14 % ID/g
Decay corrected biodistribution, Brain ([2]; 1 h after i.v.): 0.46 ± 0.08 % ID/g
Decay corrected biodistribution, Brain ([2]; 2 h after i.v.): 0.39 ± 0.01 % ID/g
Decay corrected biodistribution, Brain ([2]; 4 h after i.v.): 0.21 ± 0.02 % ID/g
Decay corrected biodistribution, Brain ([2]; 8 h after i.v.): 0.25 ± 0.02 % ID/g
Decay corrected biodistribution, Brain ([2]; 24 h after i.v.): 0.07 ± 0.02 % ID/g
retention of radioactivity in the tumor, time post administration ([2]; EMT-6 tumor): 1 to 8 h
Decay corrected biodistribution, Tumor ([2]; EMT-6 tumor, 5 min after i.v.): 0.74 ± 0.07 % ID/g
Decay corrected biodistribution, Tumor ([2]; EMT-6 tumor, 1 h after i.v.): 4.40 ± 0.15 % ID/g
Decay corrected biodistribution, Tumor ([2]; EMT-6 tumor, 2 h after i.v.): 4.93 ± 0.78 % ID/g
Decay corrected biodistribution, Tumor ([2]; EMT-6 tumor, 4 h after i.v.): 5.05 ± 0.68 % ID/g
Decay corrected biodistribution, Tumor ([2]; EMT-6 tumor, 8 h after i.v.): 5.11 ± 0.09 % ID/g
Decay corrected biodistribution, Tumor ([2]; EMT-6 tumor, 24 h after i.v.): 1.34 ± 0.37 % ID/g
Tumor accumulation ([2]; EMT-6 tumor, from 1 h to at least 8 h): above 4 % ID/g
Decay corrected biodistribution, Heart ([2]; 5 min after i.v.): 10.2 ± 0.82 % ID/g
Decay corrected biodistribution, Heart ([2]; 1 h after i.v.): 5.16 ± 1.21 % ID/g
Decay corrected biodistribution, Heart ([2]; 2 h after i.v.): 4.70 ± 0.31 % ID/g
Decay corrected biodistribution, Heart ([2]; 4 h after i.v.): 3.54 ± 0.17 % ID/g
Decay corrected biodistribution, Heart ([2]; 8 h after i.v.): 4.01 ± 0.29 % ID/g
Decay corrected biodistribution, Heart ([2]; 24 h after i.v.): 1.14 ± 0.27 % ID/g
Decay corrected biodistribution, Kidney ([2]; 5 min after i.v.): 47.7 % ID/g and 47.7 ± 2.32 % ID/g
Decay corrected biodistribution, Kidney ([2]; 1 h after i.v.): 5.83 % ID/g and 5.83 ± 0.53 % ID/g
Decay corrected biodistribution, Kidney ([2]; 2 h after i.v.): 5.59 ± 0.35 % ID/g
Decay corrected biodistribution, Kidney ([2]; 4 h after i.v.): 2.97 ± 0.13 % ID/g
Decay corrected biodistribution, Kidney ([2]; 8 h after i.v.): 3.24 ± 0.21 % ID/g
Decay corrected biodistribution, Kidney ([2]; 24 h after i.v.): 1.05 ± 0.23 % ID/g
Decay corrected biodistribution, Liver ([2]; 5 min after i.v.): 18.1 ± 2.11 % ID/g
Decay corrected biodistribution, Liver ([2]; 1 h after i.v.): 6.39 ± 3.27 % ID/g
Decay corrected biodistribution, Liver ([2]; 2 h after i.v.): 4.63 ± 1.01 % ID/g
Decay corrected biodistribution, Liver ([2]; 4 h after i.v.): 1.87 ± 0.17 % ID/g
Decay corrected biodistribution, Liver ([2]; 8 h after i.v.): 1.86 ± 0.19 % ID/g
Decay corrected biodistribution, Liver ([2]; 24 h after i.v.): 0.59 ± 0.20 % ID/g
Decay corrected biodistribution, Lung ([2]; 5 min after i.v.): 20.2 ± 1.39 % ID/g
Decay corrected biodistribution, Lung ([2]; 1 h after i.v.): 7.14 ± 1.03 % ID/g
Decay corrected biodistribution, Lung ([2]; 2 h after i.v.): 6.42 ± 0.39 % ID/g
Decay corrected biodistribution, Lung ([2]; 4 h after i.v.): 5.74 ± 0.53 % ID/g
Decay corrected biodistribution, Lung ([2]; 8 h after i.v.): 6.23 ± 0.57 % ID/g
Decay corrected biodistribution, Lung ([2]; 24 h after i.v.): 2.21 ± 0.40 % ID/g
Decay corrected biodistribution, Muscle ([2]; 5 min after i.v.): 0.69 ± 0.16 % ID/g
Decay corrected biodistribution, Muscle ([2]; 1 h after i.v.): 1.24 ± 0.18 % ID/g
Decay corrected biodistribution, Muscle ([2]; 2 h after i.v.): 1.15 ± 0.07 % ID/g
Decay corrected biodistribution, Muscle ([2]; 4 h after i.v.): 0.56 ± 0.03 % ID/g
Decay corrected biodistribution, Muscle ([2]; 8 h after i.v.): 0.61 ± 0.04 % ID/g
Decay corrected biodistribution, Muscle ([2]; 24 h after i.v.): 0.19 ± 0.01 % ID/g
Decay corrected biodistribution, Pancreas ([2]; 5 min after i.v.): 8.81 ± 1.21 % ID/g
Decay corrected biodistribution, Pancreas ([2]; 1 h after i.v.): 18.1 ± 1.60 % ID/g
Decay corrected biodistribution, Pancreas ([2]; 2 h after i.v.): 18.0 ± 1.65 % ID/g
Decay corrected biodistribution, Pancreas ([2]; 4 h after i.v.): 26.3 ± 2.11 % ID/g
Decay corrected biodistribution, Pancreas ([2]; 8 h after i.v.): 21.1 ± 2.35 % ID/g
Decay corrected biodistribution, Pancreas ([2]; 24 h after i.v.): 5.78 ± 0.89 % ID/g
Decay corrected biodistribution, Skin ([2]; 5 min after i.v.): 0.58 ± 0.05 % ID/g
Decay corrected biodistribution, Skin ([2]; 1 h after i.v.): 2.30 ± 0.23 % ID/g
Decay corrected biodistribution, Skin ([2]; 2 h after i.v.): 2.66 ± 0.30 % ID/g
Decay corrected biodistribution, Skin ([2]; 4 h after i.v.): 1.79 ± 0.15 % ID/g
Decay corrected biodistribution, Skin ([2]; 8 h after i.v.): 2.10 ± 0.42 % ID/g
Decay corrected biodistribution, Skin ([2]; 24 h after i.v.): 0.85 ± 0.08 % ID/g
Decay corrected biodistribution, Spleen ([2]; 5 min after i.v.): 8.41 ± 2.67 % ID/g
Decay corrected biodistribution, Spleen ([2]; 1 h after i.v.): 13.2 ± 2.76 % ID/g
Decay corrected biodistribution, Spleen ([2]; 2 h after i.v.): 12.0 ± 1.47 % ID/g
Decay corrected biodistribution, Spleen ([2]; 4 h after i.v.): 7.59 ± 0.49 % ID/g
Decay corrected biodistribution, Spleen ([2]; 8 h after i.v.): 7.49 ± 1.38 % ID/g
Decay corrected biodistribution, Spleen ([2]; 24 h after i.v.): 2.14 ± 1.02 % ID/g
Decay corrected biodistribution, Stomach ([2]; 5 min after i.v.): 5.87 ± 1.12 % ID/g
Decay corrected biodistribution, Stomach ([2]; 1 h after i.v.): 15.9 ± 2.53 % ID/g
Decay corrected biodistribution, Stomach ([2]; 2 h after i.v.): 16.3 ± 2.29 % ID/g
Decay corrected biodistribution, Stomach ([2]; 4 h after i.v.): 19.7 ± 1.79 % ID/g
Decay corrected biodistribution, Stomach ([2]; 8 h after i.v.): 28.2 ± 7.21 % ID/g
Decay corrected biodistribution, Stomach ([2]; 24 h after i.v.): 9.88 ± 1.62 % ID/g
Decay corrected biodistribution, Thyroid ([2]; 5 min after i.v.): 5.87 ± 0.85 % ID/g
Decay corrected biodistribution, Thyroid ([2]; 1 h after i.v.): 11.6 ± 1.01 % ID/g
Decay corrected biodistribution, Thyroid ([2]; 2 h after i.v.): 18.3 ± 6.12 % ID/g
Decay corrected biodistribution, Thyroid ([2]; 4 h after i.v.): 14.0 ± 4.26 % ID/g
Decay corrected biodistribution, Thyroid ([2]; 8 h after i.v.): 13.3 ± 2.96 % ID/g
Decay corrected biodistribution, Thyroid ([2]; 24 h after i.v.): 4.87 ± 1.15 % ID/g
maximal tumor to muscle ratio ([2]; at 4 h): 9.02
